Reference: patent US20240368209A1, “GEMCITABINE ANTICANCER DERIVATIVE AND ANTICANCER PHARMACEUTICAL USE” (ASCENTAWITS PHARMACEUTICALS, LTD., priority 2021, published 2024)
Like-named read-outs stand apart in the source and are kept apart here.

Legend:
[1] = tested on: H460 non-small cell lung cancer human tumor cell line; assay: In vitro human tumor cell line cytotoxicity (proliferation) assay on H460, CTG, with or without AST-3021; type: cell-based; conditions: for IC50: Homo sapiens
Experimental: In vitro human tumor cell line cytotoxicity assay was used.
In vitro proliferation data on the H460 non-small cell lung cancer human tumor cell line (cell line which highly expresses AKR1C3) is reported below in the compound table.
IC50 values were obtained with the following steps:
Specifically, exponentially growing cells were seeded at a density of 2×10^3 cells/100 μL/well in a 96-well plate and incubated at 37° C. in 5% CO2, 95% air and 100% relative humidity for 24 hours. The test compound was administered alone: 24 hours after cell plating, the compound acted alone, 99 μL of growth medium per well was added, and 1 μL of the compound prepared at 200× was added, and the plate was shaken gently to ensure even mixing, then placed into an incubator of 37° C., 5% CO2. After further cultivation for 72 hours, the number of live cells was detected using CTG. The CTG detection method was as follows: the cell plate to be tested was placed at room temperature to equilibrate for 30 minutes, and 100 μL of medium per well was discarded. 25 μL of CTG reagent (CellTiter-Glo® kit) per well was added, and the plate was placed in a high-speed shaker to oscillate for 2 minutes, and placed at room temperature in the dark for 30 minutes. The chemiluminescence signal value was read using a multimode microplate reader, with a read time of 1000 ms.
Similarly, in order to further verify that the compounds were activated by human AKR1C3 (aldosterone reductase family 1 member C3), the effect of some of the compounds on the proliferation of H460 cancer cells was tested with pretreatment with a specific AKR1C3 enzyme inhibitor AST-3021 (3 μM). The detailed experimental procedure was as follows: 24 hours after cell plating, 98 μL of growth medium per well was added, and 1 μL of 200×compound AST-3021 was added to each well, and the plate was shaken gently to ensure even mixing, and then placed into an incubator; after 2 hours, 1 μL of the test compound prepared at 200× was added, and the plate was shaken gently to ensure even mixing and then laced into an incubator of 37° C., 5% CO2. The inhibitor used was compound 36, i.e.
in Flanagan et al., Bioorganic and Medicinal Chemistry (2014), page 962-977, and is referred to as AST-3021 in this invention. The values measured in this case are values corresponding to +AST-3021 IC50 (nM) in Table 1.
The value corresponding to +AST-3021 IC50 (nM) divided by the value corresponding to IC50 (nM) is the specific activation ratio. The relative magnitude of the specific activation ratio can be used to evaluate whether this compound is a cytotoxic compound activated by human AKR1C3 (aldosterone reductase family 1 member C3): when the specific activation ratio is less than 1, it is considered that the compound is not activated by human AKR1C3 (aldosterone reductase family 1 member C3); when the specific activation ratio is greater than 1, it is considered that the compound is activated by human AKR1C3 (aldosterone reductase family 1 member C3), and the higher the value, the higher the activation degree and the selectivity of AKR1C3.

[2] = Plasma stability in dog plasma; type: in vitro ADME
Experimental: The final concentration of organic solvents was 0.5%. The test was conducted in duplicate. • C.
Samples were analyzed with LC-MS/MS. All calculations were conducted using Microsoft Excel.

Question: For `CC(C)NP(=O)(OCc1ccc([N+](=O)[O-])c(Oc2ccc(-c3ccc(F)cc3)c(F)c2)c1)OCC1OC(C2N=CC(N)=NC2=O)C(F)(F)C1O` (stereo not shown) [Compound H11], which “specific activation ratio (+AST-3021 IC50/IC50)” value [1] is on record?
Answer: The value was 92.8.

Question: What about the IC50 ([1]; NCI-H460, compound alone, 72 hours, read-out: IC50) of the same molecule?
Answer: Its IC50 is 15.9 nM.

Question: And the IC50 ([1]; NCI-H460, pretreatment with AKR1C3 inhibitor AST-3021 (3 μM), read-out: +AST-3021 IC50)?
Answer: The IC50 was 1480 nM.

Question: And the “t1/2 (min)” value [2]?
Answer: The value was “∞”.

Question: And the “Remaining percentage (%)” value ([2]; 0 min, 5 μM, 37° C.)?
Answer: The value was 100.00%.

Question: And the “plasma stability (in words)” value ([2]; 37° C., at least 2 hours)?
Answer: Its value is “stable and has no significant metabolism”.

Question: What about the “Remaining percentage (%)” value ([2]; 15 min) of the same molecule?
Answer: The value was 104.14%.

Question: What about the “Remaining percentage (%)” value ([2]; 30 min) of the same molecule?
Answer: Its value is 103.37%.

Question: And the “Remaining percentage (%)” value ([2]; 60 min)?
Answer: The value was 102.42%.

Question: And the “Remaining percentage (%)” value ([2]; 120 min)?
Answer: Its value is 103.04%.
